The source of these data is patent US7915245B2, “Methods and compositions of trail-death receptor agonists/activators” (The Board of Regents of the University of Texas System, priority 2007, dated 2011).

The structures appear in SMILES notation.

The test system of data set [1] is prostate cancer LNCaP cells xenografted. Nature of the data set: LNCaP xenograft tumor growth. The data set is classed as in vivo, Balb c nude mice. The settings on record: 40 mg/kg iv, 5 days per week. On the procedure:
FIG. 28. […] LNCaP cells (2×10^6 cells as a 50% suspension in Matrigel, Becton Dickinson, Bedford, Mass., in a final volume of 0.1 ml) were injected subcutaneously in the right flank of Balb c nude mice. After tumor formation (about 100 mm^3), nude mice were treated (iv) with vehicle control (0.1 ml normal saline), and DRA9S (40 mg/kg, 0.1 ml volume) everyday 5 days per week throughout the duration of the experiment. Tumor volume was calculated using the equation: (volume=length×width×depth×0.5236 mm^3). Data represent mean±S.E.
LNCaP cells (2×10^6 cells as a 50% suspension in Matrigel, Becton Dickinson, Bedford, Mass., in a final volume of 0.1 ml) were injected subcutaneously in the right flank of Balb c nude mice. After tumor formation (about 100 mm^3), nude mice were treated (iv) with vehicle control (0.1 ml normal saline), and DRA9S (40 mg/kg, 0.1 ml volume) everyday 5 days per week throughout the duration of the experiment. Tumor volume was calculated using the equation: (volume=length×width×depth×0.5236 mm^3). See, for example, FIG. 28. Data represent mean ±S.E.

In data set [2] the test system is breast cancer MDA-MB-468 cells xenografted. Nature of the data set: MDA-MB-468 xenograft tumor growth. It counts as in vivo, Balb c nude mice. Particulars: 40 mg/kg iv, 5 days per week. The procedure:
FIG. 30. […] MDA-MB-468 cells (2×10^6 cells, in a final volume of 0.1 ml PBS) were injected subcutaneously in the right flank of Balb c nude mice. After tumor formation (about 100 mm^3), nude mice were treated (iv) with vehicle control (0.1 ml normal saline), and DRA9S (40 mg/kg, 0.1 ml volume) everyday 5 days per week throughout the duration of the experiment. Tumor volume was calculated using the equation: (volume=length×width×depth×0.5236 mm^3). Data represent mean±S.E.
MDA-MB-468 cells (2×10^6 cells, in a final volume of 0.1 ml PBS) were injected subcutaneously in the right flank of Balb c nude mice. After tumor formation (about 100 mm^3), nude mice were treated (iv) with vehicle control (0.1 ml normal saline), and DRA9S (40 mg/kg, 0.1 ml volume) everyday 5 days per week throughout the duration of the experiment. Tumor volume was calculated using the equation: (volume=length×width×depth×0.5236 mm^3). See, for example, FIG. 30. Data represent mean ±S.E.

The subject of data set [3] is mesothelioma MS1 cell line. Nature of the data set: XTT cell viability, mesothelioma MS1. The data set is classed as cell-based. The settings on record: then DRA 72 h; for effect of NFκB inhibitor MG132 on the inhibitory effect on cell viability: MG132 2.5 μM 4 h. The procedure:
FIG. 44. […] Mesothelioma MS1 cells were treated with NFκB inhibitor MG132 (2.5 μM) for 4 h followed by treatment with various concentrations of DRA11, DRA9, and DRA9S for 72 h. At the end of incubation, cell viability was measured by XTT assay. Data represent the mean±S.D.
FIG. 54. […] MS1 cells were pretreated with either control peptide (10 μM) or pan caspase inhibitor (z-VAD-fmk, 25 μM) for 2 h, followed by treatment with various doses of DRA11, DRA9 and DRA9S for 72 h. At the end of incubation, cell viability was measured by XTT assay. Data represent the mean±S.D.
(§1) XTT Assay. Cells (1×10^4 cells per well) were seeded in 96-well plates (flat bottom), and treated with death receptor agonists/activators/small molecules in the presence or absence of TNF-related apoptosis inducing ligand (TRAIL). Plates were incubated for various time points at 37° C. and 5% CO2. Before the end of the experiment, 50 μl XTT (sodium 3′[1-(phenylaminocarbonyl)-3,4-tetrazolium]-bis(4-methoxy-6-nitro) benzene sulfonic acid hydrate) labeling mixture (final concentration, 125 μM sodium XTT and 25 μM PMS) per well was added and plates were incubated for a further 4 h at 37° C. and 5% CO2. The spectrophotometric absorbance of the sample was measured using a microtitre plate (ELISA) reader. The wavelength to measure absorbance of the formazan product was 450 nm, and the reference wavelength was 650 nm.

The test system of a further data set is normal human hepatocytes. Nature of the data set: XTT cell viability, normal hepatocytes. The data set is classed as cell-based. Particulars: 0, 1, 3, 5 and 10 μM, 72 h. The procedure: FIGS. 59 A, B & C. DRAs has no effect on cell viability of normal human hepatocytes. Normal human hepatocytes were incubated with various concentrations of DRA11 (0, 1, 3, 5 and 10 μM) (FIG. 59A), DRA9S (0, 1, 3, 5 and 10 μM) (FIG. 59B), and DRA9 (0, 1, 3, 5 and 10 μM) (FIG. 59C) for 72 h. At the end of incubation period, cell viability was measured by XTT assay.
as §1
Background: Tetrazolium dyes change colour on reduction, which living cells bring about.

Data set [4] concerns human normal prostate epithelial cells (PrECs). Nature of the data set: XTT cell viability, normal prostate epithelial cells. The settings on record: 72 h. The data set is classed as cell-based. The procedure:
FIG. 22. DRAs have no effect on cell viability in human normal prostate epithelial cells (PrECs). PrECs were treated with DRA11, DRA9 and DRA9S for 72 h. At the end of incubation period, cell viability was measured by XTT assay. Data represent the mean±S.D. Control refers to group treated with DMSO (0.01%).
FIGS. 60 A, B & C. DRAs has no effect on cell viability of human normal mammary, prostate and lung epithelial cells. Human normal mammary (FIG. 60A), prostate (FIG. 60B) and lung (FIG. 60C) epithelial cells were treated with DRA11 (0-25 μM) for 72 h, and cell viability was measured by XTT assay.
XTT Assay. Cells (1×10^4 cells per well) were seeded in 96-well plates (flat bottom), and treated with death receptor agonists/activators/small molecules in the presence or absence of TNF-related apoptosis inducing ligand (TRAIL). Plates were incubated for various time points at 37° C. and 5% CO2. […] The spectrophotometric absorbance of the sample was measured using a microtitre plate (ELISA) reader. The wavelength to measure absorbance of the formazan product was 450 nm, and the reference wavelength was 650 nm.
PrECs were treated with DRA11, DRA9 and DRA9S for 72 h. At the end of incubation period, cell viability was measured by XTT assay. […]

The subject of data set [5] is mesothelioma M9K cell line. Nature of the data set: XTT cell viability, mesothelioma M9K. The data set is classed as cell-based. Particulars: then DRA 72 h; for effect of NFκB inhibitor MG132 on the inhibitory effect on cell viability: MG132 2.5 μM 4 h; for effect of pan caspase inhibitor (z-VAD-fmk) on the inhibitory effect on cell viability: z-VAD-fmk 25 μM 2 h pretreatment. On the procedure: FIG. 43. […] Mesothelioma M9K cells were treated with NFκB inhibitor MG132 (2.5 μM) for 4 h followed by treatment with various concentrations of DRA11, DRA9, and DRA9S for 72 h. At the end of incubation, cell viability was measured by XTT assay. Data represent the mean±S.D.
FIG. 52. […] M9K cells were pretreated with either control peptide (10 μM) or pan caspase inhibitor (z-VAD-fmk, 25 μM) for 2 h, followed by treatment with various doses of DRA11, DRA9 and DRA9S for 72 h. At the end of incubation, cell viability was measured by XTT assay. Data represent the mean±S.D.
as §1

The subject of data set [6] is mesothelioma M33K cell line. Nature of the data set: XTT cell viability, mesothelioma M33K. The data set is classed as cell-based. Particulars: z-VAD-fmk 25 μM 2 h pretreatment, then DRA 72 h. The procedure:
FIG. 53. […] M33K cells were pretreated with either control peptide (10 μM) or pan caspase inhibitor (z-VAD-fink, 25 μM) for 2 h, followed by treatment with various doses of DRA11, DRA9 and DRA9S for 72 h. At the end of incubation, cell viability was measured by XTT assay. Data represent the mean±S.D.
as §1

Regarding `CCOc1cc(Br)c(Br)c(/C=N/c2cccc(C(=O)O)c2C)c1O` [DRA9S], the “growth of xenografted LNCaP tumors (tumor volume)” value in data set [1] is “inhibits growth”. Further, the “growth of xenografted MDA-MB-468 tumors (tumor volume)” value in data set [2] was “inhibits growth”. The “effect of NFκB inhibitor MG132 on the inhibitory effect on cell viability” value in data set [3] and in data set [5] was “enhances the inhibitory effects” in each case. The “effect on cell viability of normal human hepatocytes” value in the data set on normal human hepatocytes was “no effect”. For the same compound, in data set [4], the “effect on cell viability in PrECs” value is reported as “no effect”. The “effect of pan caspase inhibitor (z-VAD-fmk) on the inhibitory effect on cell viability” value in data set [5] is given as “blocks the inhibitory effects”.

`CCOc1cc(Br)c(Br)c(/C=N/c2cccc(C(=O)O)c2)c1O` [DRA9]: the “effect of pan caspase inhibitor (z-VAD-fmk) on the inhibitory effect on cell viability” value in data set [6], in data set [3] (z-VAD-fmk 25 μM 2 h pretreatment) and in data set [5] was “blocks the inhibitory effects” throughout. Moreover, the “effect of NFκB inhibitor MG132 on the inhibitory effect on cell viability” value in data set [3] and in data set [5] was “enhances the inhibitory effects” each time. Moreover, the “effect on cell viability of normal human hepatocytes” value with normal human hepatocytes was “no effect”. In addition, the “effect on cell viability in PrECs” value in data set [4] is given as “no effect”.
